# Experimental data as given in patent publication US20220378889A1, “NEO-EPITOPE VACCINES AND METHODS OF TREATING CANCER” (Epivax Therapeutics Inc., priority 2019, published 2022).
# What was measured:
# [1] = tested on: CT26 murine colon tumor cells; assay: CT26 tumor growth with or without poly-ICLC (Example 13); format: in vivo, BALB/c mice; settings: day 25 post-tumor implantation; sc twice per week for three weeks from day 4
# Procedure: The goal of this experiment was to determine the requirement for the inclusion of the adjuvant poly-ICLC in a peptide vaccine containing ANCER™ selected neoantigens. For this experiment, female BALB/c mice were implanted subcutaneously with 3×10^5 CT26 murine colon tumor cells. Tumor growth was monitored by caliper measurement and mice were sacrificed 45 days after tumor implantation or when tumor volumes reached 2000 mm^3, whichever came first.
# Four vaccine groups were tested (n=10 mice/group):
# Group 2=PBS with 50 μg poly-ICLC
# Group 3=20 ANCER™ selected (uncapped) peptides with 50 μg poly-ICLC
# Group 4=20 ANCER™ selected (uncapped) peptides only
# Peptide vaccines were comprised of 20 different ANCER™ selected peptides at a concentration of 5 μg/peptide for a total dose of 100 μg peptide per immunization. Mice were immunized subcutaneously in the opposite flank from tumor implantation twice per week for three weeks, starting at day 4 post-tumor implantation.
# CT26 tumor cells = assay: CT26 tumor growth and survival after vaccination (Example 1); settings: N=10 mice per group
# Procedure: Mice were separated into three groups: 1) PBS control; 2) poly-ICLC (vehicle); 3) ANCER™-selected CT26 Neoantigen Peptides+poly-ICLC. • Group 1: PBS, sc injections at days 5, 8, 12, 15, 19, 22, and 26. • Group 2: poly-ICLC, 50 μg, sc injections at days 5, 8, 12, 15, 19, 22, and 26. • Group 3: 5 μg/ANCER™-selected CT26 Neoantigen Peptide (100 μg total ANCER™-selected CT26 Neoantigen Peptides)+50 μg poly-ICLC, sc injections at days 5, 8, 12, 15, 19, 22, and 26.
# All mice (N=10 mice per group) were injected 3*10^5 CT26 tumor cells in 0% Matrigel at day 0. Mice were sacrificed once the tumor volume reached 2,000 mm^3 or at day 45, whichever came first.
substance,measurement,setting,value
poly-ICLC,control of tumor growth relative to PBS / poly-ICLC alone,[1],no difference in tumor growth kinetics
same,"mice reaching endpoint (tumor volume of at least 2,000 mm^3) by day 28",CT26 tumor cells,60%
